# Species on record: Rattus norvegicus
# Assay: DrugMatrix - Regimen: Daily Repeat
# Format: toxicity, organism-based, Sprague-Dawley
# Parameters: regimen Daily Repeat, gender Male, age 6-8 weeks
# Conditions: in vivo, po, route oral GAVAGE, vehicle 100 % SALINE; for ABSOLUTE BASOPHIL / ABSOLUTE EOSINOPHIL / ABSOLUTE LYMPHOCYTE / ABSOLUTE MONOCYTE / ABSOLUTE SEGMENTED NEUTROPHIL / BASOPHIL / EOSINOPHIL / ERYTHROCYTE COUNT / HEMOGLOBIN / LEUKOCYTE COUNT / LYMPHOCYTE / MEAN CORPUSCULAR HEMOGLOBIN / MEAN CORPUSCULAR HEMOGLOBIN CONCENTRATION / MEAN CORPUSCULAR VOLUME / MONOCYTE / NEUTROPHIL / NUCLEATED RED BLOOD CELLS / PLATELET COUNT / HEMATOCRIT: tissue Blood
# [1] = 200 mg/kg, 120 h, dose level Low, time 5 day
# [2] = 200 mg/kg, 120 h, tissue Plasma, dose level Low, time 5 day
# [3] = 600 mg/kg, 72 h, dose level High, time 3 day
# [4] = 600 mg/kg, 72 h, tissue Plasma, dose level High, time 3 day
# [5] = 600 mg/kg, 120 h, dose level High, time 5 day
# [6] = 600 mg/kg, 120 h, tissue Plasma, dose level High, time 5 day
substance,measurement,setting,value
LEAD(IV) ACETATE,ABSOLUTE BASOPHIL,[1],0 CELLS/uL
same,ABSOLUTE EOSINOPHIL,[1],0 CELLS/uL
same,ABSOLUTE LYMPHOCYTE,[1],11837.33 CELLS/uL
same,ABSOLUTE MONOCYTE,[1],82.67 CELLS/uL
same,ABSOLUTE SEGMENTED NEUTROPHIL,[1],680 CELLS/uL
same,BASOPHIL,[1],0%
same,EOSINOPHIL,[1],0%
same,ERYTHROCYTE COUNT,[1],5.76 x10E6/uL
same,HEMOGLOBIN,[1],13.8 G/DL
same,LEUKOCYTE COUNT,[1],12.6 x10E3/uL
same,LYMPHOCYTE,[1],93.67%
same,MEAN CORPUSCULAR HEMOGLOBIN,[1],23.93 pg
same,MEAN CORPUSCULAR HEMOGLOBIN CONCENTRATION,[1],39.23 G/DL
same,MEAN CORPUSCULAR VOLUME,[1],61.03 fL
same,MONOCYTE,[1],0.67%
same,NEUTROPHIL,[1],5.67%
same,NUCLEATED RED BLOOD CELLS,[1],0.33 /100WBC
same,PLATELET COUNT,[1],1075 x10E3/uL
same,ALANINE AMINOTRANSFERASE,[2],43.33 u/L
same,ALKALINE PHOSPHATASE,[2],339 u/L
same,ASPARTATE AMINOTRANSFERASE,[2],80 u/L
same,BLOOD UREA NITROGEN,[2],13.33 mg/dL
same,CARBON DIOXIDE,[2],33 mmol/L
same,CHLORIDE,[2],99 MEQ/L
same,CHOLESTEROL,[2],74.67 mg/dL
same,CREATINE PHOSPHOKINASE,[2],263.33 u/L
same,CREATININE,[2],0.31 mg/dL
same,GLUCOSE,[2],134 mg/dL
same,LACTATE DEHYDROGENASE,[2],132.67 u/L
same,LIPASE,[2],14.33 u/L
same,PHOSPHORUS,[2],11.33 mg/dL
same,POTASSIUM,[2],5.88 MEQ/L
same,SODIUM,[2],146.7 MEQ/L
same,TOTAL BILIRUBIN,[2],0.17 mg/dL
same,TOTAL PROTEIN,[2],6.4 G/DL
same,URIC ACID,[2],0.57 mg/dL
same,ABSOLUTE BASOPHIL,[3],0 CELLS/uL
same,ABSOLUTE EOSINOPHIL,[3],0 CELLS/uL
same,ABSOLUTE LYMPHOCYTE,[3],6951.33 CELLS/uL
same,ABSOLUTE MONOCYTE,[3],49.33 CELLS/uL
same,ABSOLUTE SEGMENTED NEUTROPHIL,[3],532.67 CELLS/uL
same,BASOPHIL,[3],0%
same,EOSINOPHIL,[3],0%
same,ERYTHROCYTE COUNT,[3],5.19 x10E6/uL
same,HEMATOCRIT,[3],32%
same,HEMOGLOBIN,[3],12.7 G/DL
same,LEUKOCYTE COUNT,[3],7.53 x10E3/uL
same,LYMPHOCYTE,[3],92%
same,MEAN CORPUSCULAR HEMOGLOBIN CONCENTRATION,[3],39.7 G/DL
same,MONOCYTE,[3],0.67%
same,NEUTROPHIL,[3],7.33%
same,NUCLEATED RED BLOOD CELLS,[3],0 /100WBC
same,PLATELET COUNT,[3],1337.33 x10E3/uL
same,ALANINE AMINOTRANSFERASE,[4],41.67 u/L
same,ALBUMIN,[4],4 G/DL
same,ALKALINE PHOSPHATASE,[4],253 u/L
same,ASPARTATE AMINOTRANSFERASE,[4],83 u/L
same,BLOOD UREA NITROGEN,[4],10.33 mg/dL
same,CARBON DIOXIDE,[4],27 mmol/L
same,CHOLESTEROL,[4],81.33 mg/dL
same,CREATINE PHOSPHOKINASE,[4],396 u/L
same,CREATININE,[4],0.38 mg/dL
same,LACTATE DEHYDROGENASE,[4],126.67 u/L
same,LIPASE,[4],11.33 u/L
same,POTASSIUM,[4],5.16 MEQ/L
same,TOTAL BILIRUBIN,[4],0.1 mg/dL
same,URIC ACID,[4],0.83 mg/dL
same,ABSOLUTE BASOPHIL,[5],0 CELLS/uL
same,ABSOLUTE EOSINOPHIL,[5],0 CELLS/uL
same,ABSOLUTE LYMPHOCYTE,[5],13230 CELLS/uL
same,ABSOLUTE MONOCYTE,[5],139 CELLS/uL
same,ABSOLUTE SEGMENTED NEUTROPHIL,[5],1031 CELLS/uL
same,BASOPHIL,[5],0%
same,EOSINOPHIL,[5],0%
same,ERYTHROCYTE COUNT,[5],6.04 x10E6/uL
same,HEMATOCRIT,[5],35.43%
same,HEMOGLOBIN,[5],13.83 G/DL
same,LEUKOCYTE COUNT,[5],14.4 x10E3/uL
same,LYMPHOCYTE,[5],92%
same,MEAN CORPUSCULAR HEMOGLOBIN,[5],22.97 pg
same,MEAN CORPUSCULAR HEMOGLOBIN CONCENTRATION,[5],39.07 G/DL
same,MEAN CORPUSCULAR VOLUME,[5],58.67 fL
same,MONOCYTE,[5],1%
same,NEUTROPHIL,[5],7%
same,NUCLEATED RED BLOOD CELLS,[5],0.33 /100WBC
same,PLATELET COUNT,[5],1226 x10E3/uL
same,ALANINE AMINOTRANSFERASE,[6],46.33 u/L
same,ALKALINE PHOSPHATASE,[6],257 u/L
same,ASPARTATE AMINOTRANSFERASE,[6],82 u/L
same,BLOOD UREA NITROGEN,[6],11.67 mg/dL
same,CARBON DIOXIDE,[6],35 mmol/L
same,CHLORIDE,[6],97.67 MEQ/L
same,CHOLESTEROL,[6],86 mg/dL
same,CREATINE PHOSPHOKINASE,[6],294 u/L
same,CREATININE,[6],0.19 mg/dL
same,LACTATE DEHYDROGENASE,[6],99 u/L
same,PHOSPHORUS,[6],10.3 mg/dL
same,POTASSIUM,[6],5.89 MEQ/L
same,TOTAL BILIRUBIN,[6],0.13 mg/dL
same,TOTAL PROTEIN,[6],6 G/DL
same,URIC ACID,[6],0.7 mg/dL

# Reference: ChEMBL document CHEMBL3885881, “DrugMatrix”
